Measured values reported in patent US8871179B2, “Method for monitoring blood flow and metabolic uptake in tissue with radiolabeled alkanoic acid” (The General Hospital Corporation, priority 2003, dated 2014).

Assays:
[1] = in vivo; cited from earlier work
[2] = Biodistribution of [^18F]-FCPHA in rats (organs excised, gamma counter); assay type: in vivo, Sprague-Dawley rats
[3] = PET heart imaging in monkey after intravenous [^18F]-FCPHA; assay type: in vivo
Description: (§1) In FIG. 6, the images are a comparison of [^13N]ammonia (right) and [^18F]FCPHA (left) at 2-8 minutes in a pig.
(§2) The biodistribution of [^18F]-FCPHA was also studied in monkeys.

[4] = Biodistribution of [^18F]-FCPHA in rats (organs excised, gamma counter); assay type: in vivo, Sprague-Dawley rats; details: rat
Description: Male Sprague-Dawley rats weighing approximately 300-350 grams, were injected without anesthesia with 40 µCi of [^18F]-FCPHA in a total volume of 200 µl. The radiolabeled FA was injected into the tail vein and the rats subsequently sacrificed at 5 minutes and 60 minutes post-injection. The organs were excised and counted in a gamma counter. Accumulation of the FA in various organs in % DPG (dose per gram) is detailed in Table 1.
Bone accumulation of the fluorinated FA measured de-fluorination of the compound and its subsequent accumulation. To confirm imaging resolution, the following ratios were determined at 5 and 60 minutes post-injection (Table 2).

[5] = Heart imaging in pig after intravenous [^18F]FCPHA; assay type: in vivo
Description: as §1, §2

[6] = Biodistribution of isomers and racemic mixture of labeled 3-methylheptadecanoic acid in rats; assay type: in vivo; details: rat
Description: The following data compare the biodistribution of 1-[^11C]-3(S)-methylheptadecanoic acid (the ‘S’ isomer) and I-[^11C]-3(R)-methylheptadecanoic acid (the ‘R’ isomer). Also compared is the racemic mixture, 1-[^14C]-3(R,S)-methylheptadecanoic acid, labeled with ^14C. […] Biodistribution was performed in six rats for each compound and time point. The 5-minute distribution data are contained in Table 5, while the 30-minute data are contained in Table 6. These unexpected results imply that during β-oxidation, enoyl-CoA hydratase is stereo-specific and only recognizes the ‘S’ isomer. Further, stereoisomeric purity is important for targeting the MFA to heart tissue.

[7] = cited from earlier work
[8] = normal myocardium, biexponential clearance

## CC(C)(CCCCCCCCCCCCc1ccc(I)cc1)CC(=O)O [DMIPP]
[1]
  Myocardial clearance: 6 to 7 h

## CCCCCCCCC([18F])CCCCC1CC1CC(=O)O (stereo not drawn) [[^18F]-FCPHA, [^18F]-9-fluoro-3,4-cyclopropyl-heptadecanoic acid]
[2]
  Subcellular distribution in the rat heart: found in the mitochondria
[3]; monkey
  Blood activity clearance: fast clearance
[3]; monkey heart, after injection (FIG. 3)
  Heart activity as a function of time: initial spike of activity corresponding to blood flow followed by a plateau after 10 minutes
[3]; monkey, sixty minutes after intravenous injection of 5 mCi
  Myocardial trapping visualized by PET: myocardial trapping in both left and right ventricles
[4]; 5 min post-injection
  Accumulation in Adrenal: 0.22 ± 0.061 % DPG
  Accumulation in Blood: 0.064 ± 0.008 % DPG
  Accumulation in Bone: 0.16 ± 0.03 % DPG
  Accumulation in Brain: 0.06 ± 0.01 % DPG
  Accumulation in Gastrointestinal Tract: 0.19 ± 0.040 % DPG
  Accumulation in Kidney: 0.41 ± 0.097 % DPG
  Accumulation in Liver: 1.34 ± 0.26 % DPG
  Accumulation in Lung: 0.47 ± 0.12 % DPG
  Accumulation in Muscle: 0.25 ± 0.009 % DPG
  Accumulation in Spleen: 0.55 ± 0.30 % DPG
  Accumulation in Stomach: 0.12 ± 0.067 % DPG
  Accumulation in Testes: 0.020 ± 0.003 % DPG
[4]; 5 min post-injection, tail vein
  Accumulation in Heart: 1.55 ± 0.66 % DPG
[4]; 60 min post-injection
  Accumulation in Adrenal: 0.30 ± 0.16 5 DPG
  Accumulation in Blood: 0.080 ± 0.019 5 DPG
  Accumulation in Bone: 0.70 ± 0.39 5 DPG
  Accumulation in Brain: 0.05 ± 0.02 5 DPG
  Accumulation in Gastrointestinal Tract: 0.24 ± 0.039 5 DPG
  Accumulation in Heart: 1.43 ± 0.14 5 DPG
  Accumulation in Kidney: 0.34 ± 0.08 5 DPG
  Accumulation in Liver: 0.87 ± 0.15 5 DPG
  Accumulation in Lung: 0.33 ± 0.16 5 DPG
  Accumulation in Muscle: 0.097 ± 0.075 5 DPG
  Accumulation in Spleen: 0.34 ± 0.085 5 DPG
  Accumulation in Stomach: 0.15 ± 0.038 5 DPG
  Accumulation in Testes: 0.011 ± 0.004 5 DPG
[4]; at 5 minutes post-injection
  Heart-to-blood ratio: 25.8
  Heart-to-lung ratio: 3.3
[4]; at 60 minutes post-injection
  Heart-to-blood ratio: 20.4
  Heart-to-lung ratio: 4.6
[5]; late images at 60 minutes
  Myocardial activity retention in late images: high myocardial activity retention
[5]; pig
  Blood activity clearance: fast clearance
[5]; pig heart, after injection
  Heart activity as a function of time: initial spike of activity corresponding to blood flow followed by a plateau after 10 minutes

## CCCCCCCCCCCCCC[C@H](C)C[11C](=O)O (single isomer, unassigned; isomer 1) [S-isomer]
[6]; 5 minutes post-injection
  Biodistribution, Blood: 0.18 ± 0.01 % DPE
  Biodistribution, Heart: 3.44 ± 0.54 % DPE
  Biodistribution, Left Ventricle: 4.05 ± 0.77 % DPE
  Biodistribution, Right Ventricle: 3.40 ± 0.82 % DPE
  Heart-to-blood: 19.00
  Left ventricle-to-blood: 22.00
  Right ventricle-to-blood: 18.88
[6]; 30 minutes post-injection
  Biodistribution, Blood: 0.21 ± 0.04 % DPE
  Biodistribution, Heart: 3.08 ± 0.30 % DPE
  Biodistribution, Left Ventricle: 3.81 ± 0.37 % DPE
  Biodistribution, Right Ventricle: 2.82 ± 0.46 % DPE
  Heart-to-blood: 14.66
  Left ventricle-to-blood: 18.14
  Right ventricle-to-blood: 18.88

## CCCCCCCCCCCCCC[C@@H](C)C[11C](=O)O (single isomer, unassigned; isomer i) [R-isomer]
[6]; 5 minutes post-injection
  Biodistribution, Blood: 0.30 ± 0.04 % DPE
  Biodistribution, Heart: 1.40 ± 0.23 % DPE
  Biodistribution, Left Ventricle: 1.50 ± 0.50 % DPE
  Biodistribution, Right Ventricle: 0.94 ± 0.46 % DPE
  Heart-to-blood: 4.66
  Left ventricle-to-blood: 5.00
  Right ventricle-to-blood: 3.13
[6]; 30 minutes post-injection
  Biodistribution, Blood: 0.23 ± 0.03 % DPE
  Biodistribution, Heart: 1.07 ± 0.16 % DPE
  Biodistribution, Left Ventricle: 1.33 ± 0.25 % DPE
  Biodistribution, Right Ventricle: 0.93 ± 0.35 % DPE
  Heart-to-blood: 5.95
  Left ventricle-to-blood: 5.78
  Right ventricle-to-blood: 4.00

## O=C(O)CCCCCCCCCCCCCCc1ccc(I)cc1 [IPPA, 15-(p-iodophenyl)pentadecanoic acid]
[7]; in vivo
  Blood clearance t½ (elimination): 5 min
[7]; [8]
  Myocardial clearance, fast component t½ (flow): 3.5 min
  Myocardial clearance, slow component t½ (metabolism): 130 min

## CC(CCCCCCCCCCCCc1ccc(I)cc1)CC(=O)O (racemic) [BMIPP, 15-(p-iodophenyl)-3-(R,S)-methyl-pentadecanoic acid]
[1]
  Myocardial retention: 30 to 45 min

## CCCCCCCCCCCCCCC(C)C[14C](=O)O (racemic) [R,S racemic mixture, 1-[^14C]-3(R,S)-methylheptadecanoic acid]
[6]; 5 minutes post-injection
  Biodistribution, Blood: 0.23 ± 0.02 % DPE
  Biodistribution, Heart: 2.20 ± 0.95 % DPE
  Biodistribution, Left Ventricle: 2.87 ± 1.01 % DPE
  Biodistribution, Right Ventricle: 2.05 ± 0.54 % DPE
  Heart-to-blood: 9.56
  Left ventricle-to-blood: 12.48
  Right ventricle-to-blood: 8.90
[6]; 30 minutes post-injection
  Biodistribution, Blood: 0.20 ± 0.02 % DPE
  Biodistribution, Heart: 2.10 ± 0.41 % DPE
  Biodistribution, Left Ventricle: 2.81 ± 0.35 % DPE
  Biodistribution, Right Ventricle: 2.10 ± 0.41 % DPE
  Heart-to-blood: 10.10
  Left ventricle-to-blood: 12.48
  Right ventricle-to-blood: 10.05
